Data as given in patent publication US11207420B2, “Cytotoxin and conjugate, uses of same and preparation method therefor” (priority 2017, dated 2021).
Square brackets hold non-standard residues; d marks the D form. Peptide text beside a SMILES is read from it. * marks the point of attachment. ξ: configuration not given here. Dolaproine = CO[C@@H]([C@@H]1CCCN1)[C@@H](C)C(=O)O; Dil = CC[C@H](C)[C@H](NC)[C@@H](CC(=O)O)OC; d(β3hF) = N[C@@H](CC(=O)O)Cc1ccccc1; NH(4-aminobenzyl) = Nc1ccc(CN*)cc1; NMe2Val = CC(C)[C@@H](C(=O)*)N(C)C; β3hF = N[C@H](CC(=O)O)Cc1ccccc1; NMeV = CN[C@H](C(=O)O)C(C)C; ξF = NC(Cc1ccccc1)C(=O)O; X1 = CN(Cc1ccc(N)cc1)*

Assays:
NCI-H322M = experiment: Inhibitory effect of small molecule toxins on cell proliferation in vitro (CCK8); assay type: cell-based; conditions: 5000 cells/well, 3 days, starting at 20000 nM, 5-fold dilution
Method: (§1) First, tumor cells MDA-MB-468 and NCI-H322M were cultured; the small molecule toxins of the present invention, maytansin derivative (DM1, Nanjing Lianning), monomethyl auristatin F (MMAF, Nanjing Lianning) were co-cultured respectively with the tumor cells. Then, CCK8 reagent (Dongren Chemical Technology Co., Ltd.) was added, followed by detection with the microplate reader (manufacturer: Molecular Devices, model: SpectraMax M2) (wavelength: 450 nm). The activity of dehydrogenase in mitochondria was detected, to evaluate the inhibitory effect of small molecule toxins on cell proliferation.
(§2) Test of cell activity in vitro: toxins were diluted (10 concentration gradients) with the corresponding test medium (containing 2% FBS). Tumor cells were trypsinized by a conventional method using trypsin, and cells were collected by tube and resuspended in the corresponding test medium (containing 2% FBS). The diluted toxins were added to a 96-well plate, to which were added the cells. Thereafter, 20 μL of CCK8 reagent was added to each well, and reaction was carried out for 4 hours, followed by detection with the microplate reader (wavelength: 450 nm).

MDA-MB-468 = experiment: as above; assay type: cell-based; conditions: MDA-MB-468, 7500 cells/well, 4 days
Method: as §1, §2

[1] = Homo sapiens, MDA-MB-468, 96 h, Table 3, starting at 10 nM, 2-fold dilution
[2] = Table 2, 3-fold dilution starting at 10000 nM (T001: 500 nM)

CC[C@H](C)[C@@H]([C@@H](CC(=O)N1CCC[C@H]1[C@H](OC)[C@@H](C)C(=O)NC(Cc1ccccc1)C(=O)NCc1ccc(N)cc1)OC)N(C)C(=O)[C@@H](NC(=O)[C@H](C(C)C)N(C)C)C(C)C (stereo partly drawn) [Example T001, (2S)—N-((3R,4S,5 S)-1-((2S)-2-((1R,2R)-3-((1-((4-aminobenzyl)amino)-1-oxo-3-phenylprop-2-yl)amino)-1-methoxy-2-methyl-3-propionyl)pyrrolidin-1-yl)-3-methoxy-5-methyl-1-heptanoyl-4-yl)-2-((S)-2-(dimethylamino)-3-methylbutyramido)-N,3-dimethylbutyramide] (NMe2Val-V[Dil][Dolaproine][ξF]-{NH(4-aminobenzyl)}) showed an EC50 (NCI-H322M; Homo sapiens, 72 h) of 2 nM, an EC50 (MDA-MB-468; Homo sapiens, MDA-MB-468, 96 h, Table 2, 3-fold dilution starting at 10000 nM (T001: 500 nM)) of 0.538 nM and an EC50 (MDA-MB-468; [1]) of 1.13 nM.
For CC[C@H](C)[C@@H]([C@@H](CC(=O)N1CCC[C@H]1[C@H](OC)[C@@H](C)C(=O)N[C@H](Cc1ccccc1)C(=O)N(C)Cc1ccc(N)cc1)OC)N(C)C(=O)[C@@H](NC(=O)[C@H](C(C)C)N(C)C)C(C)C [Example T002, (S)—N-((3R,4 S,5 S)-1-((S)-2-((1R,2R)-3-(((R)-1-((4-aminobenzyl)(methyl)amino)-1-oxo-3-phenylprop-2-yl)amino)-1-methoxy-2-methyl-3-propionyl)pyrrolidin-1-yl)-3-methoxy-5-methyl-1-heptanoyl-4-yl)-2-((S)-2-(dimethylamino)-3-methylbutyramido)-N,3-dimethylbutyramide] (NMe2Val-V[Dil][Dolaproine][dF]-X1), the EC50 (MDA-MB-468; [1]) was over 10 nM.
Work on CC[C@H](C)[C@@H]([C@@H](CC(=O)N1CCC[C@H]1[C@H](OC)[C@@H](C)C(=O)N[C@@H](Cc1ccccc1)C(=O)N(C)Cc1ccc(N)cc1)OC)N(C)C(=O)[C@@H](NC(=O)[C@H](C(C)C)N(C)C)C(C)C [Example T003, (S)—N-((3R,4S,5 S)-1-((S)-2-((1R,2R)-3-(((S)-1-((4-aminobenzyl)(methyl)amino)-1-oxo-3-phenylprop-2-yl)amino)-1-methoxy-2-methyl-3-propionyl)pyrrolidin-1-yl)-3-methoxy-5-methyl-1-heptanoyl-4-yl)-2-((S)-2-(dimethylamino)-3-methylbutyramido)-N,3-dimethylbutyramide] (NMe2Val-V[Dil][Dolaproine]F-X1) yielded an EC50 (MDA-MB-468; [1]) of 3.2 nM.
For CC[C@H](C)[C@@H]([C@@H](CC(=O)N1CCC[C@H]1[C@H](OC)[C@@H](C)C(=O)N[C@@H](Cc1ccccc1)C(=O)NCc1ccc(N)cc1)OC)N(C)C(=O)[C@@H](NC(=O)[C@H](C(C)C)N(C)C)C(C)C [Example T011] (NMe2Val-V[Dil][Dolaproine]F-{NH(4-aminobenzyl)}), the EC50 (MDA-MB-468; [1]) was 0.211 nM.
Compound CC[C@H](C)[C@@H]([C@@H](CC(=O)N1CCC[C@H]1[C@H](OC)[C@@H](C)C(=O)N[C@H](Cc1ccccc1)C(=O)NCc1ccc(N)cc1)OC)N(C)C(=O)[C@@H](NC(=O)[C@H](C(C)C)N(C)C)C(C)C [Example T012] (NMe2Val-V[Dil][Dolaproine][dF]-{NH(4-aminobenzyl)}) has an EC50 (MDA-MB-468; [1]) of 1.62 nM.
CC[C@H](C)[C@@H]([C@@H](CC(=O)N1CCC[C@H]1[C@H](OC)[C@@H](C)C(=O)N[C@H](CC(=O)NCc1ccc(N)cc1)Cc1ccccc1)OC)N(C)C(=O)[C@@H](NC(=O)[C@H](C(C)C)N(C)C)C(C)C [Example T013, (S)—N-((3R,4S,5 S)-1-((S)-2-((1R,2R)-3-(((S)-4-((4-aminobenzyl)amino)-4-oxo-1-phenylbut-2-yl)amino)-1-methoxy-2-methyl-3-oxopropyl)pyrrolidin-1-yl)-3-methoxy-5-methyl-1-oxoheptyl-4-yl)-2-((S)-2-(dimethylamino)-3-methylbutyramido)-N,3-dimethylbutyramide] (NMe2Val-V[Dil][Dolaproine][β3hF]-{NH(4-aminobenzyl)}) showed an EC50 (MDA-MB-468; [1]) of 0.414 nM.
With CC[C@H](C)[C@@H]([C@@H](CC(=O)N1CCC[C@H]1[C@H](OC)[C@@H](C)C(=O)N[C@@H](CC(=O)NCc1ccc(N)cc1)Cc1ccccc1)OC)N(C)C(=O)[C@@H](NC(=O)[C@H](C(C)C)N(C)C)C(C)C [Example T014, (S)—N-((3R,4S,5 S)-1-((S)-2-((1R,2R)-3-(((R)-4-((4-aminobenzyl)amino)-4-oxo-1-phenylbut-2-yl)amino)-1-methoxy-2-methyl-3-oxopropyl)pyrrolidin-1-yl)-3-methoxy-5-methyl-1-oxoheptyl-4-yl)-2-((S)-2-(dimethylamino)-3-methylbutyramido)-N,3-dimethylbutyramide] (NMe2Val-V[Dil][Dolaproine][d(β3hF)]-{NH(4-aminobenzyl)}) the EC50 (MDA-MB-468; [1]) was 1.24 nM.
CC[C@H](C)[C@@H]([C@@H](CC(=O)N1CCC[C@H]1[C@H](OC)[C@@H](C)C(=O)NCC(=O)NCc1ccc(N)cc1)OC)N(C)C(=O)[C@@H](NC(=O)[C@H](C(C)C)N(C)C)C(C)C [Example T015, (S)—N-((3R,4S,5 S)-1-((S)-2-((1R,2R)-3-((2-((4-aminobenzyl)amino)-2-oxoethyl)amino)-1-methoxy-2-methyl-3-oxopropyl)pyrrolidin-1-yl)-3-methoxy-5-methyl-1-oxoheptyl-4-yl)-2-((S)-2-(dimethylamino)-3-methylbutyramido)-N,3-dimethylbutyramide] (NMe2Val-V[Dil][Dolaproine]G-{NH(4-aminobenzyl)}) was tested, and the EC50 (MDA-MB-468; [1]) was 7.43 nM.
Compound CC[C@H](C)[C@@H]([C@@H](CC(=O)N1CCC[C@H]1[C@H](OC)[C@@H](C)C(=O)N[C@@H](C)C(=O)NCc1ccc(N)cc1)OC)N(C)C(=O)[C@@H](NC(=O)[C@H](C(C)C)N(C)C)C(C)C [Example T016] (NMe2Val-V[Dil][Dolaproine]A-{NH(4-aminobenzyl)}) has an EC50 (MDA-MB-468; [1]) of 5.71 nM.
CC[C@H](C)[C@@H]([C@@H](CC(=O)N1CCC[C@H]1[C@H](OC)[C@@H](C)C(=O)N[C@@H](CC(C)C)C(=O)NCc1ccc(N)cc1)OC)N(C)C(=O)[C@@H](NC(=O)[C@H](C(C)C)N(C)C)C(C)C [Example T018] (NMe2Val-V[Dil][Dolaproine]L-{NH(4-aminobenzyl)}) gave an EC50 (MDA-MB-468; [1]) of 2.35 nM.
CC[C@H](C)[C@@H]([C@@H](CC(=O)N1CCC[C@H]1[C@H](OC)[C@@H](C)C(=O)N[C@H](C(=O)NCc1ccc(N)cc1)C(C)C)OC)N(C)C(=O)[C@@H](NC(=O)[C@H](C(C)C)N(C)C)C(C)C [Example T019] (NMe2Val-V[Dil][Dolaproine]V-{NH(4-aminobenzyl)}) showed an EC50 (MDA-MB-468; [1]) of 1.16 nM.
In the case of COc1cc2cc(c1Cl)N(C)C(=O)C[C@H](OC(=O)[C@H](C)N(C)C(=O)CCS)[C@]1(C)O[C@H]1[C@H](C)[C@@H]1C[C@@](O)(NC(=O)O1)[C@H](OC)/C=C/C=C(\C)C2 [maytansin derivative (DM1), reference compound], the EC50 (NCI-H322M) is reported as 38.8 nM and the EC50 (MDA-MB-468; [2]) is reported as 7.61 nM.
For CC[C@H](C)[C@@H]([C@@H](CC(=O)N1CCC[C@H]1[C@H](OC)[C@@H](C)C(=O)N[C@@H](Cc1ccccc1)C(=O)O)OC)N(C)C(=O)[C@@H](NC(=O)[C@@H](NC)C(C)C)C(C)C [monomethyl auristatin F (MMAF), monomethyl auristatin F, reference compound] (H-[NMeV]V[Dil][Dolaproine]F-OH), the EC50 (NCI-H322M) was 118 nM and the EC50 (MDA-MB-468; [2]) was 98.4 nM.
